Measurements taken from US9227930B2, “Aminoindane derivatives, pharmaceutical compositions containing them, and their use in therapy” (ABBOTT LABORATORIES, priority 2010, dated 2016).
Counter-ions that a name gives are not always drawn.

Target: human GlyT1c transporter (Homo sapiens (Human), UniProt P48067)
Test: Radioligand binding assay using recombinant CHO cell membranes expressing human GlyT1
Details: read-out: radioligand binding Kiapp
Experimental: 2. Radioligand binding assays using recombinant CHO cell membranes expressing human GlyT1:
Radioligand binding to human GlyT1c transporter-expressing membranes was determined as described in Mezler et al., Molecular Pharmacology 74:1705-1715, 2008.

human GlyT1c transporter, sequence (P48067 whole entry): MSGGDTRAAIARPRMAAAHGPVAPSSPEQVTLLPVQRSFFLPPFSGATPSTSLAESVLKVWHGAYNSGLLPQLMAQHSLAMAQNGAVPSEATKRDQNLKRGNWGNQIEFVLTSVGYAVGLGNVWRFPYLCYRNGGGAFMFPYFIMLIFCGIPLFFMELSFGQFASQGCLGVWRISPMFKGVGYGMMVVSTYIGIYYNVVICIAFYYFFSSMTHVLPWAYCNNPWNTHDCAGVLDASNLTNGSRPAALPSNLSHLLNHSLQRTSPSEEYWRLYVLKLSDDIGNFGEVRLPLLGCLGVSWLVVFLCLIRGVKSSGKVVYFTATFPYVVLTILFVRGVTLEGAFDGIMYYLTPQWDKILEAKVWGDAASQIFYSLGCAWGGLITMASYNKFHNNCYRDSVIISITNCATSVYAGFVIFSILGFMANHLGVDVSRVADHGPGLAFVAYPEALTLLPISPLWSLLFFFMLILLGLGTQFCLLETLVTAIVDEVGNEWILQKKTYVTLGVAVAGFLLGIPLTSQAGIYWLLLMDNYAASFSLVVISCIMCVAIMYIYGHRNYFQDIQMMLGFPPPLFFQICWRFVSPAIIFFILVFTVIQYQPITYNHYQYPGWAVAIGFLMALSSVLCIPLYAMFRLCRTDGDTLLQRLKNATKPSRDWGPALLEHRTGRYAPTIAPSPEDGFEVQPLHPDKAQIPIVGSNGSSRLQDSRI

Compound | Ki [nM]
CN[C@@H]1Cc2cc(F)c(OCCNS(=O)(=O)c3cn(C)cn3)cc2[C@@H]1Cc1ccccc1 (relative stereo) [Example 200, cis-N-(2-(3-Benzyl-6-fluoro-2-(methylamino)-2,3-dihydro-1H-inden-5-yloxy)ethyl)-1-methyl-1H-imidazole-4-sulfonamide] | ≤ 100
Cn1cnc(S(=O)(=O)NCCOc2cc3c(cc2F)C[C@@H](N2CCC2)[C@H]3Cc2ccccc2)c1 (relative stereo) [Example 201, cis-N-(2-{[2-(Azetidin-1-yl)-3-benzyl-6-fluoro-2,3-dihydro-1H-inden-5-yl]oxy}ethyl)-1-methyl-1H-imidazole-4-sulfonamide] | ≤ 100
Cn1cnc(S(=O)(=O)NCCOc2cc3c(cc2F)C[C@@H](N2CC(C)(O)C2)[C@H]3Cc2ccccc2)c1 (relative stereo) [Example 206, cis-N-(2-{[3-Benzyl-6-fluoro-2-(3-hydroxy-3-methylazetidin-1-yl)-2,3-dihydro-1H-inden-5-yl]oxy}ethyl)-1-methyl-1H-imidazole-4-sulfonamide] | ≤ 100
CN[C@@H]1Cc2cc(F)c(CNS(=O)(=O)c3cn(C)cn3)cc2[C@@H]1Cc1ccccc1 (relative stereo) [Example 209a, cis-N-{[3-Benzyl-6-fluoro-2-(methylamino)-2,3-dihydro-1H-inden-5-yl]methyl}-1-methyl-1H-imidazole-4-sulfonamide] | ≤ 10
CN[C@@H]1Cc2cc(F)c(CNS(=O)(=O)c3cn(C)cn3)cc2[C@H]1Cc1ccccc1 (relative stereo) [Example 209b, trans-N-{[3-benzyl-6-fluoro-2-(methylamino)-2,3-dihydro-1H-inden-5-yl]methyl}-1-methyl-1H-imidazole-4-sulfonamide] | ≤ 10
CCOC(=O)NC1Cc2ccc(OCCNS(=O)(=O)c3cn(C)cn3)cc2C1Cc1ccccc1 (stereo not drawn) [Example 195, Ethyl 1-benzyl-6-(2-(1-methyl-1H-imidazole-4-sulfonamido)ethoxy)-2,3-dihydro-1H-inden-2-ylcarbamate] | ≤ 1000
CCOC(=O)NC1Cc2ccc(OCCNS(=O)(=O)c3nccn3C)cc2C1Cc1ccccc1 (stereo not drawn) [Example 196, Ethyl 1-benzyl-6-(2-(1-methyl-1H-imidazole-2-sulfonamido)ethoxy)-2,3-dihydro-1H-inden-2-ylcarbamate] | ≤ 10000
Cn1cnc(S(=O)(=O)NCCOc2ccc3c(c2)C(Cc2ccccc2)C(N)C3)c1 (stereo not drawn) [Example 197, N-{2-[(2-Amino-3-benzyl-2,3-dihydro-1H-inden-5-yl)oxy]ethyl}-1-methyl-1H-imidazole-4-sulfonamide hydrochloride] | ≤ 100
Cn1ccnc1S(=O)(=O)NCCOc1ccc2c(c1)C(Cc1ccccc1)C(N)C2 (stereo not drawn) [Example 198, N-(2-(2-Amino-3-benzyl-2,3-dihydro-1H-inden-5-yloxy)ethyl)-1-methyl-1H-imidazole-2-sulfonamide hydrochloride] | ≤ 10000
CNC1Cc2ccc(OCCNS(=O)(=O)c3cn(C)cn3)cc2C1Cc1ccccc1 (stereo not drawn) [Example 199, N-(2-(3-Benzyl-2-(methylamino)-2,3-dihydro-1H-inden-5-yloxy)ethyl)-1-methyl-1H-imidazole-4-sulfonamide] | ≤ 10
Cn1cnc(S(=O)(=O)NCCOc2ccc3c(c2)C(Cc2ccccc2)C(N2CCC2)C3)c1 (stereo not drawn) [Example 202, N-(2-(2-(Azetidin-1-yl)-3-benzyl-2,3-dihydro-1H-inden-5-yloxy)ethyl)-1-methyl-1H-imidazole-4-sulfonamide] | ≤ 10
CC1CN(C2Cc3cc(F)c(OCCNS(=O)(=O)c4cn(C)cn4)cc3C2Cc2ccccc2)C1 (stereo not drawn) [Example 203, N-(2-(3-Benzyl-6-fluoro-2-(3-methylazetidin-1-yl)-2,3-dihydro-1H-inden-5-yloxy)ethyl)-1-methyl-1H-imidazole-4-sulfonamide] | ≤ 100
CC1CN(C2Cc3ccc(OCCNS(=O)(=O)c4cn(C)cn4)cc3C2Cc2ccccc2)C1 (stereo not drawn) [Example 204, N-(2-(3-Benzyl-2-(3-methylazetidin-1-yl)-2,3-dihydro-1H-inden-5-yloxy)ethyl)-1-methyl-1H-imidazole-4-sulfonamide] | ≤ 100
Cn1cnc(S(=O)(=O)NCCOc2ccc3c(c2)C(Cc2ccccc2)C(N2CC(C)(C)C2)C3)c1 (stereo not drawn) [Example 205, N-(2-{[3-Benzyl-2-(3,3-dimethylazetidin-1-yl)-2,3-dihydro-1H-inden-5-yl]oxy}ethyl)-1-methyl-1H-imidazole-4-sulfonamide] | ≤ 100
CN(CCOc1cc2c(cc1F)CC(N1CC(C)(O)C1)C2Cc1ccccc1)S(=O)(=O)c1cn(C)cn1 (stereo not drawn) [Example 207, N-(2-(3-Benzyl-6-fluoro-2-(3-hydroxy-3-methylazetidin-1-yl)-2,3-dihydro-1H-inden-5-yloxy)ethyl)-N,1-dimethyl-1H-imidazole-4-sulfonamide] | ≤ 1000
